Results as given in article PMC6222715, “Squalene Cyclases and Cycloartenol Synthases from Polystichum polyblepharum and Six Allied Ferns” (Molecules : A Journal of Synthetic Chemistry and Natural …, 2018).

Molecular target: PPH (Polystichum polyblepharum, UniProt A0A3G9ELI1)
Assay: product formation in yeast cells, GC
Type: cell-based
Details: endogenous squalene accumulated with terbinafine; in vivo; phosphate pH 7.0

Chain of PPH (A0A3G9ELI1 1-685): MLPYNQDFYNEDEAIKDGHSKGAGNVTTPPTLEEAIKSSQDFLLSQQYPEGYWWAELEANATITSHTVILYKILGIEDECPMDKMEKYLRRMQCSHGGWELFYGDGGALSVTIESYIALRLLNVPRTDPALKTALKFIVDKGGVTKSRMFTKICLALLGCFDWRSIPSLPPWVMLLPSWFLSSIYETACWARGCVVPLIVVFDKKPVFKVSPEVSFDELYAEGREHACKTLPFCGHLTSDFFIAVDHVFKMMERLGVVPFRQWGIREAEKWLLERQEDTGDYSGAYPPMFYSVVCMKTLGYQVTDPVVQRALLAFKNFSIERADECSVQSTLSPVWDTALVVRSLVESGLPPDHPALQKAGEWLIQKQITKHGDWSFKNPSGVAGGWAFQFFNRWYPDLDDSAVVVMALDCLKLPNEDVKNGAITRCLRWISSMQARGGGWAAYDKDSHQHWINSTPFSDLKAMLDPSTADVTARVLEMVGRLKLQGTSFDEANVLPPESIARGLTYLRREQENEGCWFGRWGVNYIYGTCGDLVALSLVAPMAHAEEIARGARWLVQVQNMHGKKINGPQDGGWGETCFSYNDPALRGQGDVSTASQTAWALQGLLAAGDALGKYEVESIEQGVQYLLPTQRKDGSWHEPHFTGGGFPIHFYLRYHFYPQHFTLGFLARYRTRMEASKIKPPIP

For `CC(C)=CCC/C(C)=C/CC/C(C)=C/CC/C=C(\C)CC/C=C(\C)CCC=C(C)C` [compound 1, squalene], the “product formation in yeast cells, GC” value was “PPH could use the accumulated endogenous squalene as an in vivo substrate”.
